Assay: Single dose, open-label, 4-period crossover pharmacokinetic study; plasma tramadol and O-desmethyltramadol (M1) by HPLC-MS/MS; AQ=Cmax/Tmax
Conditions: for AQ for tramadol, comparison between treatments (in words): 4-way cross-over study, co-crystal vs Ultram® and vs Ultram® and Celebrex® taken concomitantly, Ultram® alone vs in combination; for O-desmethyltramadol AQ / Tramadol AQ: n 33, 2 × 100 mg co-crystal E-58425 tablets oral (Treatment 1), healthy subjects
Protocol: The study was a single center, randomized, single dose, open-label, 4-period, 4-sequence, crossover design in healthy male and female subjects.
The products were administered to 36 subjects. The wash-out between the periods for each subject was of 7 calendar days.
Separate blood samples were obtained for analysis of tramadol/M1 metabolite and for analysis of celecoxib (data not shown).
As soon as possible following blood collection, samples were centrifuged at a temperature of 4° C. nominal and at approximately 1500 g for 10 minutes. The plasma obtained was separated into duplicate polypropylene culture tubes. […] The samples were frozen in an upright position and retained in the clinic's freezers at a temperature of −20° C. nominal until sent on dry ice to the bioanalytical facility for assay.
The experimental human plasma samples were assayed for tramadol and M1 metabolite (0-desmethyltramadol) and also for celecoxib (data not shown) using two different validated bioanalytical methods by HPLC with MS/MS detection.
Sample pre-treatment involved the liquid-liquid extraction of tramadol and O-desmethyltramadol from 0.100 mL of human plasma; tramadol-D6 and O-desmethyltramadol-D6 were used as the internal standards (IS1 and IS2 respectively). The compounds were identified and quantified using Hilic HPLC with MS/MS detection over a theoretical concentration range of 2.00 ng/mL to 800.00 ng/mL for tramadol and 0.500 ng/mL to 200.00 ng/mL for O-desmethyltramadol. The concentrations were calculated using peak area ratios and the linearity of the calibration curve was determined using a weighted (1/x^2) linear (y=mx+b) least squares regression analysis for tramadol and for O-desmethyltramadol.
Pharmacokinetic parameters were estimated from the individual plasma concentration—time profile for each subject. The main absorption and disposition parameters were obtained using a non-compartmental approach with a log-linear terminal phase assumption. Maximum observed plasma concentration (Cmax) and the time of maximum observed plasma concentration (Tmax) were obtained directly from the experimental data. The trapezoidal rule was used to estimate the area under the curve (AUC; data not shown) and the terminal phase was estimated by maximizing the coefficient of determination estimated from the log-linear regression model (T1/2; data not shown). The abuse quotient was obtained using the following expression AQ=Cmax/Tmax.

**Q.** For `COc1cccc(C2(O)CCCCC2CN(C)C)c1.Cc1ccc(-c2cc(C(F)(F)F)nn2-c2ccc(S(N)(=O)=O)cc2)cc1.Cl` (racemic) [Co-crystal E-58425, co-crystal of (rac)-tramadol.HCl and celecoxib], which “AQ for tramadol, comparison between treatments (in words)” value is on record?
**A.** Its value is “lower”.

**Q.** And the “AQ for tramadol, comparison between treatments (in words)” value (listed as co-crystal E-58425)?
**A.** The value was “better (lower)”.

**Q.** And the “O-desmethyltramadol AQ” value (Mean)?
**A.** Its value is 13.5 ng/(mL · h).

**Q.** What about the “Tramadol AQ” value (Mean) of the same compound?
**A.** The value was 70.5 ng/(mL · h).

**Q.** What about the “O-desmethyltramadol AQ” value (Median) of the same compound?
**A.** Its value is 13.3 ng/(mL · h).

**Q.** And the “Tramadol AQ” value (Median)?
**A.** The value was 70.7 ng/(mL · h).
